We go through 25 compounds from patent US9206130B2, “Quinoline derivatives as AXL kinase inhibitors” (Max-Planck-Gesellschaft zur Förderung der Wissenschaften …, priority 2008, dated 2015).

Some results are limits rather than exact numbers.

The target in series [1] is T1, wild type AXL (wtAXL) receptor tyrosine kinase (Homo sapiens, UniProt P30530).
T1 construct: WtAXL cDNA was cloned into vector pLXSN(ESK) and transfected into Phoenix E packaging cells; expressed in transfected cells; host or cells: NIH3T3 N7 mouse fibroblasts, retrovirally infected (clone 22)
T1 sequence (P30530 26-894): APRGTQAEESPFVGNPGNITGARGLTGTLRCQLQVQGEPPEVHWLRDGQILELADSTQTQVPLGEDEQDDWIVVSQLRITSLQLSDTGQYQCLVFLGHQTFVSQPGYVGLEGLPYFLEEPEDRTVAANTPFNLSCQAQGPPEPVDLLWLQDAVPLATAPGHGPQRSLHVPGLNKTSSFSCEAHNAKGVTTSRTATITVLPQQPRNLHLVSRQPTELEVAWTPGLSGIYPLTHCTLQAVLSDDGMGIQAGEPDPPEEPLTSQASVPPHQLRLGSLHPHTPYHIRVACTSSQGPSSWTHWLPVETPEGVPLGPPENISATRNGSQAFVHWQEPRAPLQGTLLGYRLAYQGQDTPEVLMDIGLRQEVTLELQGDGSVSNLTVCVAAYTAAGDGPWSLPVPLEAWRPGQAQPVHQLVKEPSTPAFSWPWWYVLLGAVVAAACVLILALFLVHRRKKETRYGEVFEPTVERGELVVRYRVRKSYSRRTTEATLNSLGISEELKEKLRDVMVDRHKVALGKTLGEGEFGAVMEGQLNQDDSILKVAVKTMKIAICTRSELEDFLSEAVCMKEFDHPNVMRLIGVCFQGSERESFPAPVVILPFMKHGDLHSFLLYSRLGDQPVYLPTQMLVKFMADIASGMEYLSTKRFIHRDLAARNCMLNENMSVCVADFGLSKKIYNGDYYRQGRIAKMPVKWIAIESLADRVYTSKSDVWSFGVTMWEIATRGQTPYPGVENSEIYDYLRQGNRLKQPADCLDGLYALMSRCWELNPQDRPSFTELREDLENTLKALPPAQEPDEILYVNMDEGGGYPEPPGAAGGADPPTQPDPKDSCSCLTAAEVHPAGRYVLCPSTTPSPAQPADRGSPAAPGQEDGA
The experiment in a line: NIH-3T3-AXL cellular tyrosine kinase assay (inhibition of AXL phosphorylation). It counts as cell-based. Conditions: AXL phosphorylation in NIH-3T3-AXL (clone 22) cells, serum-depleted, 2 h with compound, immunoprecipitation / anti-phosphotyrosine blot. The procedure, abridged: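 NIH3T3 clones stably expressing human wtAXL (puromycin-selected) were exposed to serially diluted compounds for 2 h. AXL was immunoprecipitated from lysates with anti-AXL antibody, and phosphorylation detected by anti-phosphotyrosine (4G10) western blot with ECL.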

Consider `COc1cc2nccc(Oc3ccc(NS(=O)(=O)c4cc(F)ccc4F)cc3F)c2cc1OC` [Example A99, N-[4-(6,7-Dimethoxy-quinolin-4-yloxy)-3-fluoro-phenyl]-2,5-difluoro-benzenesulfonamide], for which the melting point was in the range of 232 to 234 °C. In series [1], the IC50 came to 0.18 µM.

The compound `COc1cc2c(Oc3ccc(NS(=O)(=O)c4ccc(Cl)cc4F)cc3F)ccnc2cc1OCCCN1CCCC(C)C1` (centres unmarked) [Example D24, 4-Chloro-2-fluoro-N-(3-fluoro-4-{6-methoxy-7-[3-(3-methyl-piperidin-1-yl)-propoxy]-quinolin-4-yloxy}-phenyl)-benzenesulfonamide] showed a melting point of 136 to 138 °C. Moreover, in series [1], the IC50 amounted to 0.181 µM.

Regarding `COc1cc2nccc(Oc3ccc(NS(=O)(=O)c4ccc(Br)c(Cl)c4)c(C)c3)c2cc1OC` [Example A152, 4-Bromo-3-chloro-N-[4-(6,7-dimethoxy-quinolin-4-yloxy)-2-methyl-phenyl]-benzenesulfonamide], the melting point lay within 212 to 213 °C. Besides, the IC50 in series [1] is more than 10 µM.

`COc1cc2nccc(Oc3ccc(NS(=O)(=O)c4ccc(Cl)cc4F)c(C)c3)c2cc1OC` [Example A153, 4-Chloro-N-[4-(6,7-dimethoxy-quinolin-4-yloxy)-2-methyl-phenyl]-2-fluoro-benzenesulfonamide] came in with a melting point of 248 to 250 °C. In addition, in series [1], the IC50 was more than 10 µM.

`COc1cc2nccc(Oc3ccc(NS(=O)(=O)c4cccc(C#N)c4)c(F)c3)c2cc1OC` [Example A1, 3-Cyano-N-[4-(6,7-dimethoxy-quinolin-4-yloxy)-2-fluoro-phenyl]-benzenesulfonamide] registered a melting point of 223 to 224 °C. Further, the IC50 in series [1] was 4.5 µM.

`COc1cc2nccc(Oc3ccc(NS(=O)(=O)c4cc(F)cc(F)c4)c(F)c3)c2cc1OC` [Example A38, N-[4-(6,7-Dimethoxy-quinolin-4-yloxy)-2-fluoro-phenyl]-3,5-difluoro-benzenesulfonamide] registered a melting point of 243 to 245 °C. Moreover, the IC50 in series [1] was more than 10 µM.

Consider `COc1cc2nccc(Oc3ccc(NS(=O)(=O)c4cccc(Br)c4)c(F)c3)c2cc1OC` [Example A24, 3-Bromo-N-[4-(6,7-dimethoxy-quinolin-4-yloxy)-2-fluoro-phenyl]-benzenesulfonamide], for which the melting point lay in the range of 255 to 257 °C. Also, the concentration for half-maximal inhibition (IC50) in series [1] was found to be 2.4 µM.

For `COc1cc2nccc(Oc3ccc(NS(=O)(=O)c4cccc5ccccc45)c(F)c3)c2cc1OC` [Example A17, Naphthalene-1-sulfonic acid [4-(6,7-dimethoxy-quinolin-4-yloxy)-2-fluoro-phenyl]-amide], the melting point fell in the range of 243 to 245 °C. Also, in series [1], the half-inhibitory concentration (IC50) was determined as 0.89 µM.

For the compound `CCCCS(=O)(=O)Nc1ccc(Oc2ccnc3cc(OCCCN4CCCC(C)C4)c(OC)cc23)c(F)c1` (centres unmarked) [Example D25, Butane-1-sulfonic acid (3-fluoro-4-{6-methoxy-7-[3-(3-methyl-piperidin-1-yl)-propoxy]-quinolin-4-yloxy}-phenyl)-amide], the melting point was in the range of 104 to 106 °C. Besides, the half-maximal inhibitory concentration (IC50) in series [1] turned out to be 0.378 µM.

Regarding `COc1cc2nccc(Oc3ccc(NS(=O)(=O)c4ccc(OC)c5ccccc45)cc3C)c2cc1OC` [Example A130, 4-Methoxy-naphthalene-1-sulfonic acid [4-(6,7-dimethoxy-quinolin-4-yloxy)-3-methyl-phenyl]-amide], the melting point was 233 to 235 °C. In addition, in series [1], the half-inhibitory concentration (IC50) is more than 10 µM.

Compound `COc1cc2nccc(Oc3ccc(NS(=O)(=O)c4ccco4)c(F)c3)c2cc1OC` [Example A22, Furan-2-sulfonic acid [4-(6,7-dimethoxy-quinolin-4-yloxy)-2-fluoro-phenyl]-amide] registered a melting point of 210 to 212 °C. Further, the half-inhibitory concentration (IC50) in series [1] worked out at 9.6 µM.

`COc1cc(S(=O)(=O)Nc2ccc(Oc3ccnc4cc(OC)c(OC)cc34)cc2F)ccc1F` [Example A61, N-[4-(6,7-Dimethoxy-quinolin-4-yloxy)-2-fluoro-phenyl]-4-fluoro-3-methoxy-benzenesulfonamide] displayed a melting point of 214 to 216 °C. Besides, the IC50 in series [1] was found to be 0.7 µM.

`COc1cc2nccc(Oc3ccc(NS(=O)(=O)c4ccc(Br)c(C)c4)c(F)c3)c2cc1OC` [Example A19, 4-Bromo-N-[4-(6,7-dimethoxy-quinolin-4-yloxy)-2-fluoro-phenyl]-3-methyl-benzenesulfonamide] registered a melting point of 199 to 201 °C. For the same compound, in series [1], the IC50 is 4.5 µM.

Turning to `COc1cc2c(Oc3ccc(NS(=O)(=O)c4ccccc4OC(F)(F)F)cc3F)ccnc2cc1OCCN1CCOCC1` [Example D06, N-{3-Fluoro-4-[6-methoxy-7-(2-morpholin-4-yl-ethoxy)-quinolin-4-yloxy]-phenyl}-2-trifluoromethoxy-benzenesulfonamide], the melting point is 185 to 187 °C. For the same compound, the IC50 in series [1] was 0.069 µM.

`COc1cc2nccc(Oc3ccc(NS(=O)(=O)c4cc5ccccc5s4)c(C)c3)c2cc1OC` [Example A94, Benzo[b]thiophene-2-sulfonic acid [4-(6,7-dimethoxy-quinolin-4-yloxy)-2-methyl-phenyl]-amide] came in with a melting point of 255 to 257 °C. The half-maximal inhibitory concentration (IC50) in series [1] was more than 10 µM.

For `COc1cc2nccc(Oc3ccc(NS(=O)(=O)c4ccc(Br)c(Cl)c4)c(F)c3)c2cc1OC` [Example A60, 4-Bromo-3-chloro-N-[4-(6,7-dimethoxy-quinolin-4-yloxy)-2-fluoro-phenyl]-benzenesulfonamide], the melting point fell in the range of 231 to 232 °C. Also, the half-inhibitory concentration (IC50) in series [1] turned out to be 0.8 µM.

With `COc1cc2c(Oc3ccc(NS(=O)(=O)c4cccc(-c5ccccc5)c4)c(C)c3)ccnc2cc1OCCN1CCOCC1` [Example D07, Biphenyl-3-sulfonic acid {4-[6-methoxy-7-(2-morpholin-4-yl-ethoxy)-quinolin-4-yloxy]-2-methyl-phenyl}-amide], the melting point lay within 105 to 107 °C. For the same compound, the concentration for half-maximal inhibition (IC50) in series [1] is 0.35 µM.

Regarding `COc1cc2nccc(Oc3ccc(NS(=O)(=O)c4cccc(-c5ccccc5)c4)c(F)c3)c2cc1OC` [Example A34, Biphenyl-3-sulfonic acid [4-(6,7-dimethoxy-quinolin-4-yloxy)-2-fluoro-phenyl]-amide], the melting point is 193 to 195 °C. In addition, the 50% inhibitory concentration (IC50) in series [1] was found to be 0.43 µM.

In the case of `COc1cc2nccc(Oc3ccc(NS(=O)(=O)c4cc(C(F)(F)F)ccc4Br)c(F)c3)c2cc1OC` [Example A46, 2-Bromo-N-[4-(6,7-dimethoxy-quinolin-4-yloxy)-2-fluoro-phenyl]-5-trifluoromethyl-benzenesulfonamide], the melting point lay in the range of 227 to 230 °C. The IC50 in series [1] is more than 10 µM.

With `Cc1cc(Oc2ccc(NS(=O)(=O)c3cc(F)cc(F)c3)cc2)c2cc(F)ccc2n1` [Example B13, 3,5-Difluoro-N-[4-(6-fluoro-2-methyl-quinolin-4-yloxy)-phenyl]-benzenesulfonamid], the melting point fell in the range of 194 to 195 °C. Moreover, in series [1], the IC50 is less than 1 µM.

In turn, `COc1cc2nccc(Oc3ccc(NS(=O)(=O)c4cccs4)c(F)c3)c2cc1OC` [Example A4] displayed a melting point of 214 to 216 °C. In series [1], the half-maximal inhibitory concentration (IC50) worked out at 6 µM.

Compound `COc1cc2nccc(Oc3ccc(NS(=O)(=O)c4ccc5c(c4)CC(=O)N5C)c(C)c3)c2cc1OC` [Example A95, 1-Methyl-2-oxo-2,3-dihydro-1H-indole-5-sulfonic acid [4-(6,7-dimethoxy-quinolin-4-yloxy)-2-methyl-phenyl]-amide] came in with a melting point of 115 to 116 °C. Also, in series [1], the 50% inhibitory concentration (IC50) is more than 10 µM.

The compound `COc1cc2nccc(Oc3ccc(NS(=O)(=O)c4ccc(-c5ccccc5)cc4)cc3F)c2cc1OC` [Example A107, Biphenyl-4-sulfonic acid [4-(6,7-dimethoxy-quinolin-4-yloxy)-3-fluoro-phenyl]-amide] yielded a melting point of 167 to 171 °C. Moreover, the IC50 in series [1] was more than 10 µM.

The compound `COc1cc2nccc(Oc3ccc(NS(=O)(=O)c4ccccc4C(F)(F)F)c(C)c3)c2cc1OC` [Example A113, N-[4-(6,7-Dimethoxy-quinolin-4-yloxy)-2-methyl-phenyl]-2-trifluoromethyl-benzenesulfonamide] came in with a melting point of 254 to 257 °C. The half-maximal inhibitory concentration (IC50) in series [1] was more than 3 µM.

`COc1ccc(S(=O)(=O)Nc2ccc(Oc3ccnc4cc(OC)c(OC)cc34)cc2)cc1Cl` [Example A67, 3-Chloro-N-[4-(6,7-dimethoxy-quinolin-4-yloxy)-phenyl]-4-methoxy-benzenesulfonamide] gave a melting point of 226 to 227 °C. In addition, the 50% inhibitory concentration (IC50) in series [1] is more than 10 µM.
